The test system of one assay is mouse (ddY male mouse). In words: Inhibition zone formation around impregnated filter paper in rearing cage (Test Example 6). The class given is in vivo. Conditions: 50 μl on filter paper, 16 mice; for Formation rate of inhibition zone: time until inhibition zone is formed. As to the method: A total of 16 animals of a mouse (ddY male mouse of 7 weeks of age) were released in a rearing cage (16 cm in breadth, 23 cm in length and 20 cm in height). Thereafter, a piece of filter paper (1 cm in width and 10 cm in length) impregnated with 50 μl of essential oil shown in the following Table 4 or 50 μl of water was hung down from the center of the ceiling of the rearing cage, and a period of time until a state in which mice gathered in the periphery in the rearing cage but mice are not present around the filter paper (inhibition zone) is formed was measured.

Another assay has as its system rodent (mouse). The class given is in vivo. The note with it: Test Example 1, text; azodicarbonamide at 0.2 g, nitrocellulose at 23 g.

4 molecules from patent publication US20110008264A1, “METHOD FOR REPELLING A RODENT, METHOD FOR CAPTURING A RODENT AND RODENT REPELLENT” (Earth Chemical Co., Ltd., priority 2006, published 2011) can be followed below.

Take `CCCCCCOC(C)=O` [Hexyl acetate]: in the assay on mouse (ddY male mouse), the “Presence of inhibition zone” value is reported as “present” and the “Formation rate of inhibition zone” value was determined as 24 s.
As to `NC(=O)N=NC(N)=O` [azodicarbonamide], the “Repelled rodents in comparison with the control” value in the assay with rodent (mouse) was “a distinct difference was observed in comparison with the control”.
For the molecule `Cc1ccc(C(C)C)cc1` [p-Cymene], in the assay with mouse (ddY male mouse), the “Presence of inhibition zone” value is “present” and the “Formation rate of inhibition zone” value amounted to 50 s.
In the same order, the values of `CC1=CCC(C(C)C)=CC1` [γ-Terpinene] are “present” and 23 s.
